{"source": "patent US20160310525A1", "about": "“PREPARATION FOR PREVENTION AND/OR TREATMENT OF PERI-IMPLANTITIS” (RLS GLOBAL AB, priority 2013, published 2016)", "origin": "cited, not measured here", "system": "biofilm on titan specimens"}
{"molecule": "OCl", "note": "[sodium hypochlorite]", "values": [{"measurement": "antimicrobial effect on biofilm", "value": "effective"}]}
